{"source": "patent US20100286038A1", "about": "“FORMULATION CONTAINING CYCLIN-DEPENDENT KINASE INHIBITING COMPOUND AND METHOD OF TREATING TUMORS USING THE SAME” (priority 2007, published 2010)", "key": {"[1]": {"test_system": "A2780 ovarian carcinoma xenografts", "assay": "A2780 xenograft ovarian cancer model", "assay_type": "in vivo, nude mice"}, "CaMKII": {"test_system": "CaMKII", "assay_type": "biochemical"}}, "note": "Read-outs that look alike come from different tables or passages of the source."}
{"molecule": "CCc1cnn2c(NCc3ccc[n+]([O-])c3)cc(N3CCCC[C@H]3CCO)nc12", "note": "[Formula II]", "values": [{"measurement": "tumor growth inhibition", "setting": "[1]; 8 mg/kg IP daily for 10 days", "result": 70, "unit": "%"}, {"measurement": "tumor growth inhibition", "setting": "[1]; 16 mg/kg IP daily for 10 days", "result": 70, "unit": "%"}, {"measurement": "tumor growth inhibition", "setting": "[1]; 32 mg/kg IP daily for 10 days", "result": 90, "unit": "%"}, {"measurement": "tumor growth inhibition", "setting": "[1]; 48 mg/kg IP daily for 10 days", "result": 96, "unit": "%"}, {"measurement": "50% inhibition level (minimum effective dose)", "setting": "[1]; IP daily for 10 days", "result": "less than 8 mg/kg"}, {"measurement": "MED", "setting": "[1]; once per day IP for 7 days, dose inducing at least 50% inhibition of tumor growth", "result": 5, "unit": "mg/kg"}, {"measurement": "% remaining activity", "setting": "CaMKII; at 1 μM", "result": 102, "unit": "%"}, {"measurement": "% remaining activity", "setting": "CaMKII; at 10 μM", "result": 91, "unit": "%"}]}
